Measurements reported in patent publication US11173102B1, “Methods and compositions for removing color from color-treated hair” (L'Oreal, priority 2020, dated 2021).
Where “and” joins values, the source holds several entries; their conditions need not be identical. Equal entries are not always repeated.

Assays:
[1] = Log Pow (octanol/water partition coefficient) of direct dyes; settings: octanol/water partition coefficient of the dye
[2] = Color removal (ΔE) from HC blue 15 dyed, multiple-shampooed platinum bleached hair, with co-surfactants and cyclic compounds; settings: 30 min 40° C.
[3] = Color removal (ΔE) from hair swatches dyed with HC Blue 15, soaked 30 minutes at 40° C., shampooed once
Procedure: Unless otherwise indicated, hair swatches were all treated using the same protocol. Specifically, 2 g dyed hair swatches were soaked in 80 g treatment solutions or samples in water for 30 minutes at 40° C., then the treated hair swatches were then shampooed once and blow-dried for evaluation.

[4] = Color removal (ΔE) from hair swatches dyed with hydroxyanthraquinoneaminopropyl methyl morpholinium methosulfate, 23° C.; settings: 6% SLES in water; 30 min 23° C.
[5] = Controlled color removal of two-tone colored hair over one, three and six shampoo washes; settings: 10% TBuMA Cl added to commercial shampoo containing about 9% SLES, up to six washes
Text: The swatches were then washed with either the shampoo alone (control) or shampoo with TBuMA Cl and evaluated after one, three and six washes. Without addition of TBuMA Cl, the indigo color shifts to green as the number of shampoos increased. This is because Basic Red 51, a cationic direct dye, is washed out faster from hair by washing with shampoo than the HC Blue 15.

Row | Log Pow [1] | Compound | other results
1 | −1.05 | ACID YELLOW 3 | –
2 | −0.15 | C[N+](C)(C)c1ccc2ccc(O)c(N=Nc3ccc(N)c([N+](=O)[O-])c3)c2c1.[Cl-] [BASIC BROWN 17] | –
3 | 1.88 | C[N+](C)(C)c1cccc(N=C2C=C(N)c3c(O)c(Br)cc(N)c3C2=O)c1.[Cl-] [BASIC BLUE 99] | –
4 | – | OCc1ccccc1 [Benzyl Alcohol, benzyl alcohol] | ΔE ([2]; 10% Benzyl Alcohol, hair pre-shampooed 6×): 9.4
5 | 1.3 | COc1ccc([N+](=O)[O-])c(NCCN)c1.Cl [HC YELLOW NO.9] | –
6 | 0.13 | HC RED NO. 7 | –
7 | 0.06 | CC1=NN(c2ccccc2)C(=O)C1N=Nc1cccc([N+](C)(C)C)c1.[Cl-] (stereo not drawn) [BASIC YELLOW 57] | –
8 | – | sodium laureth sulfate [SLES] | ΔE ([3]; 0 wt.% organic salt, 3 wt. % SLES, 30 min 40° C.): 21.08 and 21.1; ΔE ([3]; 0 wt.% organic salt, 6 wt. % SLES, 30 min 40° C.): 21.81 and 21.4; ΔE ([3]; 0 wt.% organic salt, 12 wt. % SLES, 30 min 40° C.): 21.84; ΔE ([3]; SLES alone, over the concentrations tested (3-12 wt. %)): 21-22; ΔE [4]: 18.2; ΔE ([2]; 6% SLES, hair pre-shampooed 4×): 19.3; ΔE ([2]; 6% SLES, hair pre-shampooed 6×): 15.01
9 | 3 | Nc1ccc(N)c2c1C(=O)c1ccccc1C2=O [DISPERSE VIOLET 1] | –
10 | 0.608 | O=[N+]([O-])c1cc(N(CCO)CCO)ccc1NCCCO [HC VIOLET NO 2] | –
11 | – | CCCC[N+](C)(CCCC)CCCC.[Cl-] [TBuMA Cl, tributylmethyl ammonium chloride] | ΔE ([3]; 10 wt.% organic salt, 0 wt. % SLES, 30 min 40° C.): 1.8; leaching of Basic Red 51 ([5]; versus shampoo alone): deterred or inhibited; removal of HC Blue 15 ([5]; versus shampoo alone): accelerated; indigo color tone during shampooing [5]: maintained; ΔE ([2]; 10% TBuMA Cl, hair pre-shampooed 4×): 3.63
12 | −10.17 | O=C([O-])C1=NN(c2ccc(S(=O)(=O)[O-])cc2)C(=O)C1N=Nc1ccc(S(=O)(=O)[O-])cc1.[Na+].[Na+].[Na+] (stereo not drawn) [ACID YELLOW 23] | –
13 | 1.3 | CCN(CC)c1ccc2c(-c3ccc(S(=O)(=O)[O-])cc3S(=O)(=O)[O-])c3ccc(=[N+](CC)CC)cc-3oc2c1.[Na+] [ACID RED 52] | –
14 | −1.97 | CN(C)c1ccc(N=Nc2n(C)cc[n+]2C)cc1.[Cl-] [BASIC RED 51] | Log Pow ([1]; listed as Basic Red 51): around −1.97
15 | 0.67 | Cc1cc(N)c([N+](=O)[O-])cc1NCCO [HC VIOLET NO 1] | –
16 | 0.5 | Nc1cc(S(=O)(=O)[O-])cc2cc(S(=O)(=O)[O-])c(N=Nc3ccccc3)c(O)c12.[Na+].[Na+] [ACID RED 33] | –

Row | Log Pow [1] | Compound | other results
17 | −2.31 | Cn1cc[n+](C)c1N=Nc1ccc(N)cc1.[Cl-] [BASIC ORANGE 31] | –
18 | 2.09 | O=C1c2ccccc2C(=O)c2c(NCC(O)CO)ccc(NCC(O)CO)c21 (stereo not drawn) [HC BLUE NO. 14] | –
19 | −0.32 | O=[N+]([O-])c1cc(N(CCO)CCO)ccc1NCCO [HC BLUE NO. 2] | –
20 | 3.1 | Cc1ccc(Nc2ccc(O)c3c2C(=O)c2ccccc2C3=O)c(S(=O)(=O)[O-])c1.[Na+] [ACID VIOLET 43] | –
21 | 1.63 | O=S(=O)(O)c1cc(S(=O)(=O)O)c2c(/N=N\c3ccc(S(=O)(=O)O)c4ccccc34)c(O)ccc2c1 [ACID RED18] | –
22 | −0.42 | Nc1ccc(NCCO)c([N+](=O)[O-])c1 [HC RED NO.3] | –
23 | 3.47 | CC1=CC(=C(c2cc(C)c(N)c(C)c2)c2c(Cl)cccc2Cl)C=C(C)C1=N.O=P(O)(O)O [HC BLUE NO. 15] | Log Pow ([1]; listed as HC Blue 15): around 3.47; Log Pow ([1]; listed as HC blue 15): around 3.47
24 | 0.13 | NCCNc1ccc(OCCO)cc1[N+](=O)[O-] [HC ORANGE NO. 2] | –
25 | – | CCO [EtOH, ethanol] | ΔE ([2]; 16% EtOH, hair pre-shampooed 4×): 1.77; ΔE ([2]; 16% EtOH, hair pre-shampooed 6×): 1.8
26 | −1.69 | CN(N=Cc1cc[n+](C)cc1)c1ccccc1 [BASIC YELLOW 87] | –
27 | 1.19 | Nc1ccc(O)cc1[N+](=O)[O-] [4-AMINO-3-NITROPHENOL] | –
28 | 5.71 | Cc1ccc(Nc2ccc(Nc3ccc(C)cc3S(=O)(=O)[O-])c3c2C(=O)c2ccccc2C3=O)c(S(=O)(=O)[O-])c1.[Na+].[Na+] [ACID GREEN 25] | –
29 | 1.2 | Nc1c(N=Nc2ccc([N+](=O)[O-])cc2)c(S(=O)(=O)[O-])cc2cc(S(=O)(=O)[O-])c(N=Nc3ccccc3)c(O)c12.[Na+].[Na+] [ACID BLACK 1] | –
30 | 1.4 | O=S(=O)([O-])c1ccc(N=Nc2c(O)ccc3ccccc23)cc1.[Na+] [ACID ORANGE 7] | –
31 | 2.59 | Cc1cc(N(CCO)CCO)ccc1N=Nc1ccc(N)cc1 [HC YELLOW NO. 7] | –
32 | −0.32 | CCN(Cc1cccc(S(=O)(=O)[O-])c1)c1ccc(C(=C2C=CC(=[N+](CC)Cc3cccc(S(=O)(=O)[O-])c3)C=C2)c2ccccc2S(=O)(=O)[O-])cc1.[Na+].[Na+] [ACID BLUE 9] | –

Row | Compound | Log Pow [1] | other results
33 | O=[N+]([O-])c1cc(O)ccc1NCCO [3-NITRO-P-HYDROXYETHYLAMINOPHENOL] | 0.21 | –
34 | COS(=O)(=O)[O-].C[N+]1(CCCNc2ccc(O)c3c2C(=O)c2ccccc2C3=O)CCOCC1 [hydroxyanthraquinoneaminopropyl methyl morpholinium methosulfate] | 0.89 | Log Pow ([1]; listed as hydroxyanthraquinoneaminopropyl methyl morpholinium methosulfate): around 0.89
35 | O=C([O-])c1c(Cl)c(Cl)c(Cl)c(Cl)c1-c1c2cc(Br)c(=O)c(Br)c-2oc2c(Br)c([O-])c(Br)cc12.[Na+].[Na+] [ACID RED 92] | 3 | –
36 | CNc1cc(OCC(O)CO)ccc1[N+](=O)[O-] (stereo not drawn) [2-NITRO-5-GLYCERYL METHYLANILINE] | 0.89 | –
